# Experiments:
# LPAM-1/VCAM-1 = target: T1, LPAM-1/VCAM-1 (Homo sapiens, UniProt P13612+P26010); assay: LPAM-1/VCAM-1 adhesion inhibition test; format: cell-based
# T1 sequence (P13612 34-1032): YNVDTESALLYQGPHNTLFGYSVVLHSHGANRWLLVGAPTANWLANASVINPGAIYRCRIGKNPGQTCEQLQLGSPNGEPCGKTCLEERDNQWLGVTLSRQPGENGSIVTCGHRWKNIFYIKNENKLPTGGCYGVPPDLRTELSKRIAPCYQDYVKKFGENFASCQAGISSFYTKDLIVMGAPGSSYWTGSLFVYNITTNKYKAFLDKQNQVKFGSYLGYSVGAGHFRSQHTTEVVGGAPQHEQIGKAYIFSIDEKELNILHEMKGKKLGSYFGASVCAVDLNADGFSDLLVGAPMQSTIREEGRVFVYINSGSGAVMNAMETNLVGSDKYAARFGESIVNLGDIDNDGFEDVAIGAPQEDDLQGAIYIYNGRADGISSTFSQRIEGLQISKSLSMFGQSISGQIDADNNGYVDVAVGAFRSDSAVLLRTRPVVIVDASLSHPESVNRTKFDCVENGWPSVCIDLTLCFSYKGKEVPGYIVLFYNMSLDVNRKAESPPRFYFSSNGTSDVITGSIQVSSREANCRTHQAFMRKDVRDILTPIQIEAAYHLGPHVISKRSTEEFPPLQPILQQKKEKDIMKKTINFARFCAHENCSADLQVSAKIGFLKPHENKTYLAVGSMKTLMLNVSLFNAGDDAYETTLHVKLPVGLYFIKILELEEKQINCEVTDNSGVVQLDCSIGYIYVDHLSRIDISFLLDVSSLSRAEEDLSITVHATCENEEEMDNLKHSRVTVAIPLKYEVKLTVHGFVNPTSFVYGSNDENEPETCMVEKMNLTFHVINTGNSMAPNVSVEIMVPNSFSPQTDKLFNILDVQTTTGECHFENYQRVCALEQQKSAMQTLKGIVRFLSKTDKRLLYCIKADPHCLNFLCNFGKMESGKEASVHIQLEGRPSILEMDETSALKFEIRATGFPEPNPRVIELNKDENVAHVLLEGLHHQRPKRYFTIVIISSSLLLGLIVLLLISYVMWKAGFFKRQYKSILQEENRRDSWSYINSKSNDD
# T1 sequence (P26010 20-798): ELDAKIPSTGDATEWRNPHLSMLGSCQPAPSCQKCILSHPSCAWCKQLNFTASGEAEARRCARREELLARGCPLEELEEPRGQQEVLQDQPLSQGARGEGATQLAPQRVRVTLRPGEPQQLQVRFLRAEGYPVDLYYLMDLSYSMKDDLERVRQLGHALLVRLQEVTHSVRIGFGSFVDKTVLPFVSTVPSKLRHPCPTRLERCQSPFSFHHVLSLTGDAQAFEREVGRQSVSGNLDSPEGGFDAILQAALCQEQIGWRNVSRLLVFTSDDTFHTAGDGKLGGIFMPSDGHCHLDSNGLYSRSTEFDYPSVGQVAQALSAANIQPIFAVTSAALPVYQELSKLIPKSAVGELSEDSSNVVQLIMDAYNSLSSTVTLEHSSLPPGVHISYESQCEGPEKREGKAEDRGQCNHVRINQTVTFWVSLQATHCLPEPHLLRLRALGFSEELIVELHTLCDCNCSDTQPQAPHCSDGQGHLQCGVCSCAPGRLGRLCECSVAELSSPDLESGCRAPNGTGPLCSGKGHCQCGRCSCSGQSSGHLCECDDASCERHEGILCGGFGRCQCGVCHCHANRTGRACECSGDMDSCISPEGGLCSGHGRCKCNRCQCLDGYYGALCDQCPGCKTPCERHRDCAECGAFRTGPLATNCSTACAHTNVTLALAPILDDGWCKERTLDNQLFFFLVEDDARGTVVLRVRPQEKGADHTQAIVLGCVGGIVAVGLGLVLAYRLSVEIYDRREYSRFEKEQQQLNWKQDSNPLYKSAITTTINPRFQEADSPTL
# VLA-4/VCAM-1 = target: T2, VLA-4/VCAM-1 (Homo sapiens, UniProt P05556+P13612); assay: VLA-4/VCAM-1 adhesion inhibition test (BCECF-labelled HL-60 cells adhering to VCAM-1 expressing CHO cells); format: cell-based; conditions: adhesion of VLA-4 expressing HL-60 cells to CHO cells transfected with human VCAM-1 gene; read-out: 50% inhibition concentration
# T2 construct: endogenous in cells; host or cells: HL-60 cells (VLA-4, endogenous); CHO cells transfected with a human VCAM-1 gene (the ligand VCAM-1)
# T2 sequence (P05556 21-798, one chain of several): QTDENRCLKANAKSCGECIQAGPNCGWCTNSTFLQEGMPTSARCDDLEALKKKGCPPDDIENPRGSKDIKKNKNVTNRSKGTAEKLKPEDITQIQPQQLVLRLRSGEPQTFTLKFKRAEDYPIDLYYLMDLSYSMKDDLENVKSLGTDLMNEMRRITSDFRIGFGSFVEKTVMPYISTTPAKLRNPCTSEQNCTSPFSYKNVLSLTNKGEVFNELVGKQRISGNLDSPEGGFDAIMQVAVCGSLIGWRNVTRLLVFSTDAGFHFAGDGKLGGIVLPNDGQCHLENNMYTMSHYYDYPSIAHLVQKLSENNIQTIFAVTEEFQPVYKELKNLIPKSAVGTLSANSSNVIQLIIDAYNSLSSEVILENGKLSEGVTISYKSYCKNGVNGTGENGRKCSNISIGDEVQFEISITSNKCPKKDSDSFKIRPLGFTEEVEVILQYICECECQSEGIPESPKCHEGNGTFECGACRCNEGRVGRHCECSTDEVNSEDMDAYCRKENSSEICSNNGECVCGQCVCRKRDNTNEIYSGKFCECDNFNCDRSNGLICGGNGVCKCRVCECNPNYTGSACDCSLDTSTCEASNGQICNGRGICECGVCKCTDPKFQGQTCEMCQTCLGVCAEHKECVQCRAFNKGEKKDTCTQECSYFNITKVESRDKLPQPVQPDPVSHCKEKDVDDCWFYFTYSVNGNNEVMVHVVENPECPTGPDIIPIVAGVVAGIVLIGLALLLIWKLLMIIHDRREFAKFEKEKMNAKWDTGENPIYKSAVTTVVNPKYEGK
# Method: Test Example 1 VLA-4/VCAM-1 Adhesion Inhibition Test
# The above VCAM-1 expressing CHO cells were placed in a 96-well culture plate in amount of 7×10^3 cells per well and cultured in Ham's F-12 medium containing 10 wt % fetal calf serum (FCS) for 3 days until a confluent state was satisfied. The HL-60 cells were re-floated in Hanks' solution containing 0.4 wt % bovine serum albumin (BSA), and 5 μM of 2′,7′-bis(carboxyethyl)-5(6)-carboxyfluorescein penta acetoxy methyl ester (BCECF-AM) was added to label the cells. Solutions having various concentrations of each test substance and having an amount of 20 μl each were added to 180 μl each of suspensions of BCECF-labeled HL-60 cells re-floated at a rate of 4×10^6 cells/ml in the FCS-non-containing RPMI 1640 culture medium, and pre-treated at 37° C. for 15 minutes.
# Then, the pre-treated HL-60 cells were stratified in the 96-well plate culturing the VCAM-1 expressing CHO cells at a rate of 2×10^5 cells per well, and allowed to adhere thereto at 37° C. for 5 minutes. Then, the plate was filled with 0.4 wt % BSA Hanks, covered with a plate sealer and turned upside down. Further, the cells were cultured for 45 minutes. After washing, 1 wt % NP-40-containing PBS was added to destroy the cells, and the thus-obtained supernatants were measured for fluorescence intensity with a cyto Fluor 2300 fluorescence measurement system (supplied by Millipore).
# Further, as a blank, 1 wt % NP-40-containing PBS was measured for fluorescence intensity. Further, as standards, a fluorescence-labeled HL-60 floating liquid was added to 1 wt % NP-40-containing PBS at a rate of 2×10^5, 10^5, 2×10^4 and 10^4 cells/ml, the cells were destroyed, and the thus-obtained supernatants were measured for fluorescence intensity.
# Each test substance was measured as described above, and on the basis of the calibration curve prepared from the measurements of the standard, cells in a control and cells adhering to the VCAM-1 expressive CHO cells due to the addition of the test substances were measured for numbers, and cell adhesion inhibition ratios (%) were calculated on the basis of the following equation.
# Cell adhesion inhibition ratio (%)=100×[1−(number of adhered cells of groups to which the test substance was added/number of adhered cells of control groups)
SMILES,adhesion inhibition activity (LPAM-1/VCAM-1),IC50 (VLA-4/VCAM-1) [nM]
COc1ccc(C(Cc2ccc(NC(=O)c3c(Cl)cccc3Cl)nc2)C(=O)O)cc1N(CC(C)C)C(=O)C(C)C (centres unmarked) [Example 2],,12
CCC(CC)C(=O)N(CC(C)C)c1cc(C(Cc2ccc(NC(=O)c3c(Cl)cccc3Cl)nc2)C(=O)O)ccc1OC (centres unmarked) [Example 3],,33
CCOc1ccc(C(Cc2ccc(NC(=O)c3c(Cl)cccc3Cl)nc2)C(=O)O)cc1N(CC(C)C)C(=O)C(C)C (centres unmarked) [Example 5],,48
CCOc1ccc(C(Cc2ccc(NC(=O)c3c(Cl)cccc3Cl)nc2)C(=O)O)cc1N(CC(C)C)C(=O)C(C)(C)C (centres unmarked) [Example 6],,13
CCOc1ccc(C(Cc2ccc(NC(=O)c3c(Cl)cncc3Cl)nc2)C(=O)O)cc1N(CC(C)C)C(=O)C(C)(C)C (centres unmarked) [Example 10],adhesion inhibition activity was found,1.2

# The remaining lines, values ahead:
adhesion inhibition activity (LPAM-1/VCAM-1),IC50 (VLA-4/VCAM-1) [nM],SMILES
adhesion inhibition activity was found,3,"COc1ccc(C(Cc2ccc(NC(=O)c3c(Cl)cccc3Cl)nc2)C(=O)O)cc1N(CC(C)C)C(=O)C(C)(C)C (centres unmarked) [Example 1, 3-[2-(2,6-dichlorobenzoylamino)pyrid-5-yl]-2-{3-[(2,2-dimethylpropionyl)isobutylamino]-4-methoxyphenyl}propionic acid]"
,7.3,CCOc1ccc(C(Cc2ccc(NC(=O)c3c(Cl)cccc3Cl)nc2)C(=O)O)cc1N(CC(C)C)C(=O)C(CC)CC (centres unmarked) [Example 7]
adhesion inhibition activity was found,2.8,COc1ccc(C(Cc2ccc(NC(=O)c3c(Cl)cncc3Cl)nc2)C(=O)O)cc1N(CC(C)C)C(=O)C(C)(C)C (centres unmarked) [Example 9]
